How the values were obtained:
human CB1 receptors = human CB1 receptors (Homo sapiens (Human), UniProt P21554); assay: cAMP assay, CHO cells expressing human CB1 receptors; type: cell-based; conditions: CHO cells expressing human CB1, cAMP; read-out: human CB1 EC50
Outline: (§1)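 CHO cells, KRB buffer + 1 mM IBMX, 30 min 30 °C preincubation; compound 30 min 30 °C; lysis + TR-FRET cAMP detection, 2 h RT; cAMP from standard curve (10 μM–0.13 nM); EC50.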

human CB2 receptors = human CB2 receptors (Homo sapiens (Human), UniProt P34972); assay: cAMP assay, CHO cells expressing human CB2 receptors; type: cell-based; conditions: CHO cells expressing human CB2, cAMP; read-out: human CB2 EC50
Outline: as §1

Sequence of human CB2 receptors (P34972 whole entry): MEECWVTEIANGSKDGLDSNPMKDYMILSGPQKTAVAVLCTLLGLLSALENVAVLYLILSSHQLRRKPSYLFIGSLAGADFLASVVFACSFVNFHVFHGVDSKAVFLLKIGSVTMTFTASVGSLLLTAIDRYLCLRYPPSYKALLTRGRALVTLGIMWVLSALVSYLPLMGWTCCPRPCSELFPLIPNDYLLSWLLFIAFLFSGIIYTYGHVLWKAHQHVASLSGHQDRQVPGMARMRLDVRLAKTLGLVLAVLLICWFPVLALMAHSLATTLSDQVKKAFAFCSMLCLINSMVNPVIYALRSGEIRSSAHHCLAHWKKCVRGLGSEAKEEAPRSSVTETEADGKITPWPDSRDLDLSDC
Sequence of human CB1 receptors (P21554 whole entry): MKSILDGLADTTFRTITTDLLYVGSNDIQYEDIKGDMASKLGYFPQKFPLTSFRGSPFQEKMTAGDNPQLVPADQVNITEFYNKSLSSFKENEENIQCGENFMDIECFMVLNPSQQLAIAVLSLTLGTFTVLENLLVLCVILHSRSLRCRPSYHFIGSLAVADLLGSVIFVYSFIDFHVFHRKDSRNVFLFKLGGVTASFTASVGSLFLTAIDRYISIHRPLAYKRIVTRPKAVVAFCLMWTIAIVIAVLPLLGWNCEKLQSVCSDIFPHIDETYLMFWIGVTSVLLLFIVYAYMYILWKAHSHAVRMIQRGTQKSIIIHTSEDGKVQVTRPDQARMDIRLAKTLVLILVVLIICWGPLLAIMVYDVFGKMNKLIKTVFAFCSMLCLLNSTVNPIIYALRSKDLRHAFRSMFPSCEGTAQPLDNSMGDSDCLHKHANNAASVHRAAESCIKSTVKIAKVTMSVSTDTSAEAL

Structure (SMILES) | EC50 (human CB1 receptors) | EC50 (human CB2 receptors)
CCC(CC)(NC(=O)c1ccc(C2CCCC2)c(OCC2CC2)n1)C(=O)NC [Example 111, 5-Cyclopentyl-6-cyclopropylmethoxy-pyridine-2-carboxylic acid (1-ethyl-1-methylcarbamoyl-propyl)-amide] | > 10000 nM | 6.9 nM
CC(C)C[C@@H](CO)NC(=O)c1ccc(C2CC2)c(OCC(F)(F)F)n1 [Example 303, 5-Cyclopropyl-6-(2,2,2-trifluoro-ethoxy)-pyridine-2-carboxylic acid ((S)-1-hydroxymethyl-3-methyl-butyl)-amide] | > 10000 nM | 38 nM
CNC(=O)[C@H](CC(C)(C)C)NC(=O)c1cccc(-c2cccc(Cl)c2)n1 [Example 193, (S)-6-(3-Chlorophenyl)-N-(4,4-dimethyl-1-(methylamino)-1-oxopentan-2-yl)picolinamide] | > 10000 nM | 99.4 nM
Cc1nc(C(C)(C)NC(=O)c2ccc(C3CCCC3)c(OCC3CC3)n2)no1 [Example 54, 5-Cyclopentyl-6-cyclopropylmethoxy-pyridine-2-carboxylic acid [1-methyl-1-(5-methyl-[1,2,4]oxadiazol-3-yl)-ethyl]-amide] | 2160 nM | 11.4 nM
O=C(NC1CCOCC1)c1cccc(-c2cccc(Cl)c2)n1 [Example 21, 6-(3-Chloro-phenyl)-pyridine-2-carboxylic acid (tetrahydro-pyran-4-yl)-amide] | > 10000 nM | 220 nM
O=C(NN1CCCCC1)c1ccc(C2CC2)c(OCC2CC2)n1 [Example 42, 5-Cyclopropyl-6-cyclopropylmethoxy-pyridine-2-carboxylic acid piperidin-1-ylamide] | > 10000 nM | 1480 nM
Cc1nsc(C(C)(C)NC(=O)c2cccc(-c3cccc(Cl)c3)n2)n1 [Example 22, 6-(3-Chloro-phenyl)-pyridine-2-carboxylic acid [1-methyl-1-(3-methyl-[1,2,4]thiadiazol-5-yl)-ethyl]-amide] | > 10000 nM | 635 nM
CNC(=O)[C@H](CC(C)C)NC(=O)c1cccc(-c2cccc(C(F)(F)F)c2)n1 [Example 211, (S)-N-(4-Methyl-1-(methylamino)-1-oxopentan-2-yl)-6-(3-(trifluoromethyl)phenyl)picolinamide] | > 10000 nM | 57.1 nM
Cc1nc(C(C)(NC(=O)c2ccc(N3CC(F)(F)C3)c(OCC3CC3)n2)C2CC2)no1 (stereo not shown) [Example 340, 6-Cyclopropylmethoxy-5-(3,3-difluoro-azetidin-1-yl)-pyridine-2-carboxylic acid [1-cyclopropyl-1-(5-methyl-[1,2,4]oxadiazol-3-yl)-ethyl]-amide] | > 10000 nM | 5.7 nM
O=C(NC(c1ccccn1)C(F)(F)F)c1ccc(N2CC(F)(F)C2)c(OCC2CC2)n1 (stereo not shown) [Example 224, 6-Cyclopropylmethoxy-5-(3,3-difluoro-azetidin-1-yl)-pyridine-2-carboxylic acid (2,2,2-trifluoro-1-pyridin-2-yl-ethyl)-amide] | 648 nM | 22.2 nM
O=C(NC1CCCCC1)c1cccc(-c2cccc(Cl)c2)n1 [Example 18, 6-(3-Chloro-phenyl)-pyridine-2-carboxylic acid cyclohexylamide] | > 10000 nM | 97 nM
O=C(c1ccc(N2CCCC2)c(OCC2CC2)n1)N1CC2(COC2)C1 [Example 31, (6-Cyclopropylmethoxy-5-pyrrolidin-1-yl-pyridin-2-yl)-(2-oxa-6-aza-spiro[3.3]hept-6-yl)-methanone] | > 10000 nM | 423 nM
CC(C)C[C@H](NC(=O)c1cccc(-c2cccc(Cl)c2)n1)c1nccs1 [Example 56, 6-(3-Chloro-phenyl)-pyridine-2-carboxylic acid ((S)-3-methyl-1-thiazol-2-yl-butyl)-amide] | > 10000 nM | 173 nM
CCC(CC)(NC(=O)c1ccc(C(F)(F)F)c(OCC2CCCO2)n1)C(=O)N(C)C (stereo not shown) [Example 264, 6-(Tetrahydro-furan-2-ylmethoxy)-5-trifluoromethyl-pyridine-2-carboxylic acid (1-dimethylcarbamoyl-1-ethyl-propyl)-amide] | 602 nM | 2.7 nM
CC(C)(NC(=O)c1ccc(N2CCCS2(=O)=O)c(OCC2CC2)n1)c1nccs1 [Example 77, 6-(Cyclopropylmethoxy)-5-(1,1-dioxido-isothiazolidin-2-yl)-N-[2-(1,3-thiazol-2-yl)propan-2-yl]pyridine-2-carboxamide] | > 10000 nM | 1400 nM
CC1(COc2nc(C(=O)NC(c3ccccn3)C(F)(F)F)ccc2Br)COC1 (stereo not shown) [Example 283, 5-Bromo-6-(3-methyl-oxetan-3-ylmethoxy)-pyridine-2-carboxylic acid (2,2,2-trifluoro-1-pyridin-2-yl-ethyl)-amide] | > 10000 nM | 109 nM

Structure (SMILES) | EC50 (human CB1 receptors) | EC50 (human CB2 receptors)
Cc1nc(C(C)(C)NC(=O)c2ccc(C3CCCO3)c(OCC3CC3)n2)no1 (stereo not shown) [Example 123, 6-Cyclopropylmethoxy-5-(tetrahydro-furan-2-yl)-pyridine-2-carboxylic acid [1-methyl-1-(5-methyl-[1,2,4]oxadiazol-3-yl)-ethyl]-amide] | > 10000 nM | 20 nM
O=C(NC1CCCCC1O)c1cccc(C2CCCCC2)n1 (stereo not shown) [Example 84, 6-Cyclohexyl-pyridine-2-carboxylic acid (2-hydroxy-cyclohexyl)-amide] | > 10000 nM | 292 nM
Cc1nc(C(NC(=O)c2ccc(N3CCC34COC4)c(OCC3CC3)n2)C2CC2)no1 (stereo not shown) [Example 236, 6-Cyclopropylmethoxy-5-(6-oxa-1-aza-spiro[3.3]hept-1-yl)-pyridine-2-carboxylic acid [cyclopropyl-(5-methyl-[1,2,4]oxadiazol-3-yl)-methyl]-amide] | > 10000 nM | 36.5 nM
CC(C)(NC(=O)c1ccc(C(F)(F)F)c(OCC2CC2)n1)c1ncco1 [Example 129, 6-Cyclopropylmethoxy-5-trifluoromethyl-pyridine-2-carboxylic acid (1-methyl-1-oxazol-2-yl-ethyl)-amide] | > 10000 nM | 184 nM
CCC(CC)(NC(=O)c1ccc(C2CC2)c(OCC2CC2)n1)C(=O)N1CC(F)(F)C1 [Example 287, 5-Cyclopropyl-6-cyclopropylmethoxy-pyridine-2-carboxylic acid [1-(3,3-difluoro-azetidine-1-carbonyl)-1-ethyl-propyl]-amide] | > 10000 nM | 3.6 nM
COC(=O)C(C)(C)NC(=O)c1ccc(N2CCCC2)c(OCC2CC2)n1 [Example 27, 2-[(6-Cyclopropylmethoxy-5-pyrrolidin-1-yl-pyridine-2-carbonyl)-amino]-2-methyl-propionic acid methyl ester] | > 10000 nM | 4.6 nM
CC(C)(CCO)NC(=O)c1ccc(C2CC2)c(OCC2CC2)n1 [Example 194, 5-Cyclopropyl-6-(cyclopropylmethoxy)-N-(4-hydroxy-2-methylbutan-2-yl)picolinamide] | > 10000 nM | 99.1 nM
CNC(=O)[C@H](CC(C)(C)C)NC(=O)c1ccc(N2CCC23COC3)c(OCC2CC2)n1 [Example 234, 6-Cyclopropylmethoxy-5-(6-oxa-1-aza-spiro[3.3]hept-1-yl)-pyridine-2-carboxylic acid ((S)-3,3-dimethyl-1-methylcarbamoyl-butyl)-amide] | > 10000 nM | 8.3 nM
CC(C)(NC(=O)c1ccc(C2CC2)c(OCC(F)(F)F)n1)c1nccs1 [Example 305, 5-Cyclopropyl-6-(2,2,2-trifluoro-ethoxy)-pyridine-2-carboxylic acid (1-methyl-1-thiazol-2-yl-ethyl)-amide] | > 10000 nM | 50.3 nM
CCC(C)(NC(=O)c1ccc(C2CC2)c(OCC2CC2)n1)C(N)=O (stereo not shown) [Example 170, N-(1-Amino-2-methyl-1-oxobutan-2-yl)-5-cyclopropyl-6-(cyclopropylmethoxy)picolinamide] | > 10000 nM | 194 nM
Cc1nc(C(C)(C)NC(=O)c2ccc(N3CC(F)(F)C3)c(OCC3CC3)n2)no1 [Example 102, 6-Cyclopropylmethoxy-5-(3,3-difluoro-azetidin-1-yl)-pyridine-2-carboxylic acid [1-methyl-1-(5-methyl-[1,2,4]oxadiazol-3-yl)-ethyl]-amide] | > 10000 nM | 62.7 nM
COc1ccc(C(=O)NC(C)(C)c2nccs2)nc1-c1cccc(Cl)c1 [Example 82, 6-(3-Chloro-phenyl)-5-methoxy-pyridine-2-carboxylic acid (1-methyl-1-thiazol-2-yl-ethyl)-amide] | 2290 nM | 140 nM
CNC(=O)[C@H](CC(C)C)NC(=O)c1ccc(C2CC2)c(OCC2CCCO2)n1 (stereo partly drawn) [Example 184, 5-Cyclopropyl-N-((S)-4-methyl-1-(methylamino)-1-oxopentan-2-yl)-6-((tetrahydrofuran-2-yl)methoxy)picolinamide] | > 10000 nM | 3.9 nM
CC(C)(NC(=O)c1ccc(C2CCOC2)c(-c2cccc(Cl)c2)n1)c1nccs1 (stereo not shown) [Example 101, 6-(3-Chloro-phenyl)-5-(tetrahydro-furan-3-yl)-pyridine-2-carboxylic acid (1-methyl-1-thiazol-2-yl-ethyl)-amide] | > 10000 nM | 102 nM
CCC(CC)(NC(=O)c1ccc(C2CC2)c(OCC2CC2)n1)C(=O)NC [Example 74, 5-Cyclopropyl-6-cyclopropylmethoxy-pyridine-2-carboxylic acid (1-ethyl-1-methylcarbamoyl-propyl)-amide] | > 10000 nM | 8.9 nM
CCC(CC)(NC(=O)c1ccc(N(CC(F)(F)F)CC(F)(F)F)c(OCC2CC2)n1)C(=O)NC [Example 165, 5-[Bis-(2,2,2-trifluoro-ethyl)-amino]-6-cyclopropylmethoxy-pyridine-2-carboxylic acid (1-ethyl-1-methylcarbamoyl-propyl)-amide] | 1200 nM | 7.2 nM

Reference: patent US9290451B2 (Hoffmann-La Roche Inc., priority 2011, dated 2016)
